Laboratory results from patent publication US6355799B1, “Substituted benzene compounds, process for their preparation, and herbicidal and defoliant compositions containing them” (ISK Americas Incorporated, priority 1997, dated 2002).

Columns and labels:
Format in all cases: in vivo
[1] = system: upland rice (Oryza sp., var. Tebonnet, RICE); assay: Pre-emerge test, crop safety; details: pre-emerge, 14 days after application, scale 0-100
Summary of the method: (§1)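 Herbicidal damage is scored 0 (none) to 100 (complete plant death) two weeks after a simulated field spray. Rates span 15–1000 g ai/ha, delivered in acetone at 187 l/ha. For post-emergence treatments, plants have 2–3 leaves and the spray carries 0.25% v/v non-ionic surfactant.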

[2] = system: field corn (Zea mays L., var. Dekalb 535, CORN); assay: Pre-emerge test, crop safety; details: pre-emerge, 14 days after application, scale 0-100
Summary of the method: as §1

[3] = system: redroot pigweed (Amaranthus retroflexus, AMARE); assay: Pre-emerge test, greenhouse herbicide activity screening; details: pre-emerge, 14 days after application, scale 0-100
Summary of the method: as §1

[4] = system: common ragweed (Ambrosia artemisizfolia L., AMBEL); assay: Post-emerge test, greenhouse herbicide activity screening; details: post-emerge, 14 days after application, rating scale 0-100
Summary of the method: (§2)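 Compounds in acetone were track-sprayed at 15-1000 g ai/ha (187 l/ha) on sandy loam pots: pre-emerge one day after seeding, post-emerge at 2-3 leaf stage with 0.25% v/v non-ionic surfactant. Phytotoxicity was rated 14 days later on a 0 (no damage) to 100 (complete death) scale.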

[5] = system: ivyleaf morningglory (Ipomoea hederacea, IPOHE); assay: as above; details: post-emerge, 14 days after application, rating scale 0-100
Summary of the method: as §2

[6] = system: barnyardgrass (Echinochloa crus-galli, ECHCG); assay: as above; details: post-emerge, 14 days after application, rating scale 0-100
Summary of the method: as §2

[7] = system: green foxtail (Setaria viridis, SETVI); assay: as above; details: post-emerge, 14 days after application, rating scale 0-100
Summary of the method: as §2

[8] = system: large crabgrass (Digitaria sanguinalis, DIGSA); assay: as above; details: post-emerge, 14 days after application, rating scale 0-100
Summary of the method: as §2

[9] = system: redroot pigweed (Amaranthus retroflexus, AMARE); assay: as above; details: post-emerge, 14 days after application, rating scale 0-100
Summary of the method: as §2

[10] = system: johnsongrass (Sorghum halepense, SORHA); assay: as above; details: post-emerge, 14 days after application, rating scale 0-100
Summary of the method: as §2

[11] = system: velvetleaf (Abutilon theophrasti, ABUTH); assay: as above; details: post-emerge, 14 days after application, rating scale 0-100
Summary of the method: as §2

[12] = system: lambsquarters (Chenopodium album, CHEAL); assay: as above; details: post-emerge, 14 days after application, rating scale 0-100
Summary of the method: as §2

[13] = system: sicklepod (Cassia obtusifolia, CASOB); assay: as above; details: post-emerge, 14 days after application, rating scale 0-100
Summary of the method: as §2

[14] = system: upland rice (Oryza sp., var. Tebonnet, RICE); assay: Post-emerge test, crop safety; details: post-emerge, 14 days after application, rating scale 0-100
Summary of the method: as §2

[15] = system: field corn (Zea mays L., var. Dekalb 535, CORN); assay: Post-emerge test, crop safety; details: post-emerge, 14 days after application, rating scale 0-100
Summary of the method: as §2

[16] = system: ivyleaf morningglory (Ipomoea hederacea, IPOHE); assay: Pre-emerge test, greenhouse herbicide activity screening; details: pre-emerge, 14 days after application, scale 0-100
Summary of the method: as §2

[17] = system: barnyardgrass (Echinochloa crus-galli, ECHCG); assay: as above; details: pre-emerge, 14 days after application, scale 0-100
Summary of the method: as §2

[18] = system: green foxtail (Setaria viridis, SETVI); assay: as above; details: pre-emerge, 14 days after application, scale 0-100
Summary of the method: as §2

[19] = system: large crabgrass (Digitaria sanguinalis, DIGSA); assay: as above; details: pre-emerge, 14 days after application, scale 0-100
Summary of the method: as §2

[20] = system: johnsongrass (Sorghum halepense, SORHA); assay: as above; details: pre-emerge, 14 days after application, scale 0-100
Summary of the method: as §2

[21] = system: velvetleaf (Abutilon theophrasti, ABUTH); assay: as above; details: pre-emerge, 14 days after application, scale 0-100
Summary of the method: as §2

[22] = system: lambsquarters (Chenopodium album, CHEAL); assay: as above; details: pre-emerge, 14 days after application, scale 0-100
Summary of the method: as §2

[23] = system: sicklepod (Cassia obtusifolia, CASOB); assay: as above; details: pre-emerge, 14 days after application, scale 0-100
Summary of the method: as §2

CCSCC(=O)Nc1c(OC)c(Cl)cc(F)c1-n1c(=O)cc(C(F)(F)F)n(C)c1=O [2-172]
phytotoxicity rating RICE (crop damage) ([1]; 63 g ai/ha): 10 | phytotoxicity rating RICE (crop damage) ([1]; 250 g ai/ha): 50 | phytotoxicity rating CORN (crop damage) ([2]; 63 g ai/ha): 0 | phytotoxicity rating CORN (crop damage) ([2]; 250 g ai/ha): 10 | phytotoxicity rating AMARE ([3]; 63 g ai/ha): 70 | phytotoxicity rating AMARE ([3]; 250 g ai/ha): 100 | AMBEL phytotoxicity rating ([4]; 63 g ai/ha): 30 | AMBEL phytotoxicity rating ([4]; 250 g ai/ha): 80 | IPOHE phytotoxicity rating ([5]; 63 g ai/ha): 90 | IPOHE phytotoxicity rating ([5]; 250 g ai/ha): 100 | ECHCG phytotoxicity rating ([6]; 63 g ai/ha): 0 | ECHCG phytotoxicity rating ([6]; 250 g ai/ha): 0 | SETVI phytotoxicity rating ([7]; 63 g ai/ha): 0 | SETVI phytotoxicity rating ([7]; 250 g ai/ha): 10 | DIGSA phytotoxicity rating ([8]; 63 g ai/ha): 0 | DIGSA phytotoxicity rating ([8]; 250 g ai/ha): 0 | AMARE phytotoxicity rating ([9]; 63 g ai/ha): 60 | AMARE phytotoxicity rating ([9]; 250 g ai/ha): 60 | SORHA phytotoxicity rating ([10]; 63 g ai/ha): 0 | SORHA phytotoxicity rating ([10]; 250 g ai/ha): 0 | ABUTH phytotoxicity rating ([11]; 63 g ai/ha): 60 | ABUTH phytotoxicity rating ([11]; 250 g ai/ha): 100 | CHEAL phytotoxicity rating ([12]; 63 g ai/ha): 35 | CHEAL phytotoxicity rating ([12]; 250 g ai/ha): 60 | CASOB phytotoxicity rating ([13]; 63 g ai/ha): 50 | CASOB phytotoxicity rating ([13]; 250 g ai/ha): 90 | RICE phytotoxicity rating (crop damage) ([14]; 63 g ai/ha): 0 | RICE phytotoxicity rating (crop damage) ([14]; 250 g ai/ha): 10 | CORN phytotoxicity rating (crop damage) ([15]; 63 g ai/ha): 5 | CORN phytotoxicity rating (crop damage) ([15]; 250 g ai/ha): 10 | phytotoxicity rating IPOHE ([16]; 63 g ai/ha): 60 | phytotoxicity rating IPOHE ([16]; 250 g ai/ha): 95 | phytotoxicity rating ECHCG ([17]; 63 g ai/ha): 0 | phytotoxicity rating ECHCG ([17]; 250 g ai/ha): 60 | phytotoxicity rating SETVI ([18]; 63 g ai/ha): 20 | phytotoxicity rating SETVI ([18]; 250 g ai/ha): 65 | phytotoxicity rating DIGSA ([19]; 63 g ai/ha): 20 | phytotoxicity rating DIGSA ([19]; 250 g ai/ha): 100 | phytotoxicity rating SORHA ([20]; 63 g ai/ha): 0 | phytotoxicity rating SORHA ([20]; 250 g ai/ha): 40 | phytotoxicity rating ABUTH ([21]; 63 g ai/ha): 90 | phytotoxicity rating ABUTH ([21]; 250 g ai/ha): 100 | phytotoxicity rating CHEAL ([22]; 63 g ai/ha): 30 | phytotoxicity rating CHEAL ([22]; 250 g ai/ha): 100 | phytotoxicity rating CASOB ([23]; 63 g ai/ha): 20 | phytotoxicity rating CASOB ([23]; 250 g ai/ha): 80
